This is an account of results in US20110275518A1 (priority 2007, published 2011).

For data set [1] the following is noted: prior art teaching; cited from earlier work.
Data set [2] deals with dry bean (Phaseolus vulgaris L) seeds, cultivar 'Othello'. Kind of data set: Germination of diseased dry bean seed under bacterial disease pressure (Experiment 1). The format is in vivo. The source says:
The precipitate is recovered by filtration and the powder is dried.
Seeds were placed on blotters in Petri plates, were soaked in an excess of water for 3 days, then drained on day 4. The 3-day period of excess water created extremely high pressure from pathogenic and saprophytic bacteria. This led to a very high bacterial load on the germinating seeds and high disease pressure due to pathogenic, saprophytic and soft-rot bacteria. This disease pressure was so extreme that the germination rates for experiments 2-5 were essentially zero due to being overwhelmed by the disease pressure.

The test system of the next data set is pulse seeds. The following applies: 0.1% to 1% aqueous coating; pea, chickpea, lentil, soybean. An excerpt: Germination on blotters was scored at 7- and 14-days. Emergence from soil was scored at 21- and 28-days.
To treat seeds, one hundred seeds were placed in a 50-mL Falcon tube and combined with the treatment solution. Seeds were mixed with the treatment for 5-min by gently rolling and inverting the Falcon tube. Coated seeds were placed in an open Petri plate for 30-min to dry. Seeds were sown 10-per pot, set in a greenhouse, and maintained under standard conditions with mercury lamp lighting supplementing daylight from 3:00 pm to 10:00 pm.
Place 100-seeds into a 50-mL Falcon tube and add 1-mL of treatment solution. Gently roll and invert the tube for 5 min to evenly coat each seed without causing damage. Remove seeds from tube by pouring carefully into an empty Petri plate. Leave exposed (lid off) and air dry seeds for 30 min.
(1) Germination: Place 50 seeds from each treatment onto 25 individual moistened blotters in large Petri plates. Incubate at room temperature for 2-weeks with or without light. Score germination at 7- and 14-days. (2) Emergence: Sow 50 seeds from each treatment into five pots (10-seeds per pot and five pots per treatment). Place in a greenhouse at 22° C. with ample air circulation. Use mercury lamps to supplement lighting (on at 3:00 pm-off at 10:00 pm) if necessary. For pre-emergent plants, water pots as needed to keep soil moist but not wet. Water emergent plants daily. […]

The test system of another data set is healthy dry bean seed. The experiment in a line: Germination of healthy dry bean seed. The format is in vivo.

“Also recorded” adds a separate entry of the source.

Take `O=[N+]([O-])[O-].[Ag+]` [silver nitrate]: in data set [1], the phytotoxicity result was “phytotoxic”.
For oxysilver nitrate [high valency silver], in data set [2] (0.1% to 1% treatments, days needed to reach 25% germination), the “phytotoxicity / effect on germination of dry bean seeds” value was “no negative effects on germination; also recorded: no phytotoxic effect on germinating seeds”. For the same compound, in data set [2] (1% treatment, by day 10), the “increase in germination compared with the negative control (sterile water)” value is recorded as 34.7%. Further, the “effect on germination of pulse seeds” value in the data set with pulse seeds is reported as “no negative effects on germination of any pulse seed”. Besides, the “Day to 50% germination” value in the data set on healthy dry bean seed (1%) and with healthy dry bean seed ([…]) was 5.0 days throughout.
